From patent US20140137274A1, “INDUCED MALIGNANT STEM CELLS” (LSIP, LLC, priority 2011, published 2014)

System: cancer-related miRNAs
Assay: miRNA expression microarray (SurePrint G3 Human miRNA Microarray Rel.16.0)
Conditions: logarithmic (log2) value of quotient vs control
Procedure: Total RNA was prepared from each of six induced malignant stem cells, one induced non-malignant stem cell, and one induced pluripotent stem cell as mentioned above, and the prepared total RNAs were used in Agilent SurePrint G3 Human miRNA Microarray Rel.16.0 to detect abnormal expression (increased or reduced/lost expression) of non-coding RNAs such as endogenous cancer-related microRNAs in the induced malignant stem cells.
Complete Labeling Reagent and Hyb Kit in accordance with the Agilent protocol. To be specific, each sample total RNA (100 ng) was dephosphorylated with Calf Intestine Alkaline Phosphatase (CIP), and the RNA molecule on its 3′ terminal side was labeled with a cyanine 3-cytidine bisphosphate (pCp-Cy3) molecule using T4 RNA Ligase.
The RNA samples labeled in (14-2-3) were hybridized with SurePrint G3 Human miRNA Microarray Rel.16.0 using Agilent miRNA Complete Labeling Reagent and Hyb Kit. To be specific, each of the labeled RNAs was added to a hybridization buffer and allowed to hybridize on SurePrint G3 Human miRNA Microarray Rel.16.0 for 20 hours. After washing, the DNA microarray image was scanned by Agilent Microarray Scanner, and fluorescence signals from the spots were digitized by Feature Extraction Software (v.10.7.3.1).
The miRNAs were annotated using miRBase Release 18, and hybridization was performed onto a microarray chip with the probes designed for the miRNAs shown in the following table (refer to Table 31 below).
In this analysis, the normalized value of the digital data for the hybridization of a subject cell (induced malignant stem cell) sample was divided by the normalized value from the digital data for the hybridization of a control cell sample and the quotient was used as a measure of variation in expression. Probes for which the quotients deviated from 1 (i.e., log21=0) were considered to indicate a variation in expression; those showing quotients greater than 2 (log22=1) or smaller than 0.5 (log20.5=−1) were selected. For each of the comparisons shown below, the genes shown in the tyrosine kinase list and those shown in the cancer drug targets list were analyzed to make respective lists of the genes showing quotients greater than 2 (log22=1) or smaller than 0.5 (log20.5=−1), as compared with the quotient for the control (taken as 1). The analysis was performed using GeneSpring 12.1.
The Normalized column represents a variation in expression in logarithmic values.

Substance	Normalized (variation in microRNA expression, subject cell / control cell) ([Ngc1_7]vs [Nib2_17])	Normalized (variation in microRNA expression, subject cell / control cell) ([cc4_c]vs [Nfb2_17])	Normalized (variation in microRNA expression, subject cell / control cell) ([gc2_1]vs [Nfb2_17])	Normalized (variation in microRNA expression, subject cell / control cell) ([gc2_10]vs +Nfb2_17])	Normalized (variation in microRNA expression, subject cell / control cell) ([gcl_6]vs [Nfb2_17])	Normalized (variation in microRNA expression, subject cell / control cell) ([gc2_5]vs [Nfb2_17])	Normalized (variation in microRNA expression, subject cell / control cell) ([gc1_6]vs [Ngc1_7])
hsa-miR-200c-3p (TCCATCATTACCCGG; chemistry not given here)	1.59	4.536	−1.393	−1.715	2.005		
hsa-miR-205-5p (CAGACTCCGGTGGAAT; chemistry not given here)	−1.315		−1.577	−2.908		−2.341	
hsa-miR-210 (TCAGCCGCTGTCACAC; chemistry not given here)	1.643	3.796			2.036	−1.628	
hsa-miR-222-3p (ACCCAGTAGCCAG; chemistry not given here)		1.861					
hsa-miR-372 (ACGCTCAAATGTCGCAGC; chemistry not given here)	−3.388				−1.385		2.003
hsa-miR-373-3p (ACACCCCAAAATCGAAGC; chemistry not given here)	−2.818			−3.202	−1.094	−2.93	1.725
hsa-miR-I7-5p (CTACCTGCACTGTAAGC; chemistry not given here)				−3.619			
hsa_miR-301a-3p (GCTTTGACAATACTATTGCAC; chemistry not given here)		−1.212					
